Experiments:
MMP-1 = assay: Anti-wrinkle index test: MMP-1 content in supernatant of UVA-stimulated fibroblasts (ELISA); format: cell-based, human; settings: UVA 7 J/cm^2, samples 24 h, black tea fermentation liquor 6%, VC 80 µg/ml, GSH 20 m/ml
Experimental: (§1) Test of anti-wrinkle index of fibroblasts: fibroblasts were set with a blank control group, a model group, a positive control group and a sample group. The number of cells per well was controlled to be 5×10^5. After incubation at 37° C. for 24 h in a 5% CO2 incubator, the medium was removed and a small amount of PBS (pH of 7.4) was added to just cover the cells. The cells were stimulated with UVA at the UV radiation dose of 7 J/cm^2, and the blank control group was not radiated. PBS was discarded, samples with different concentrations were added, with the addition concentration of the black tea fermentation liquor being 6%, VC being 80 µg/ml, and GSH being 20 m/ml; and the cells were stimulated for 24 h. The cell culture supernatants were centrifuged for 15 min at 4° C. and 1000 g, and the supernatants were tested for MMP-1 content using human matrix metalloproteinase-1 (MMP-1) ELISA Kit. The cell suspension was diluted with PBS (pH of 7.2-7.4) to obtain a cell concentration of 1×10^6 cells/mL, and the cells were ruptured after repeated freeze-thaw treatment. The cells were centrifuged at 1000 g for 20 min to obtain the supernatant, which was used to test the CoLI content using a type I collagen (CoLI) test box, and test the HA content using human hyaluronic acid (HA) ELISA Kit. All operations were conducted in accordance with the kit instructions.

type I collagen (CoLI) = assay: Anti-wrinkle index test: CoL I content in UVA-stimulated fibroblasts (type I collagen test box); format: cell-based; settings: UVA 7 J/cm^2, samples 24 h, black tea fermentation liquor 6%, VC 80 µg/ml, GSH 20 m/ml
Experimental: as §1

hyaluronic acid (HA) = assay: Anti-wrinkle index test: HA content in UVA-stimulated fibroblasts (ELISA); format: cell-based, human; settings: UVA 7 J/cm^2, samples 24 h, black tea fermentation liquor 6%, VC 80 µg/ml, GSH 20 m/ml
Experimental: as §1

[1] = tested on: theanine synthesis system; assay: High throughput screening of alanine decarboxylase CsAlaDC mutant enzyme in theanine synthesis system; format: biochemical, Escherichia coli
Experimental: First, a BL21-GMAS-CsAlaDC recombinant single colony was selected and loaded onto a 96-well plate, added into a 800 μL LB medium, and cultured at 37° C. and 900 r/min for 6 h; thereafter, IPTG (isopropyl-3-D-thiogalactoside) at a final concentration of 0.1 mM was added, and cultured at 24° C. for 16 h. Into the 96-well plate, 0.1 mL glycerol, 200 μL potassium glutamate of 50 mM, 200 μL alanine of 50 mM, 50 μL ATP of 10 mM, 80 μL MgCl2 of 5 mM, 85 μL DTT of 10 mM, and 85 μL Tris-HCl of 100 mM (pH 7.5) were sequentially added, to form a theanine synthesis system. The synthesis reaction was conducted for 24 h in a 30° C. water bath and repeated three times. […]
Color developing solution: 1.0 g/L soluble starch was weighed, mixed with distilled water, and boiling distilled water was added. […] After cooling, insoluble substances were filtered through a quantitative filter paper, and 1.0 g sodium hydroxide was added. […]
10 mL EP tubes were taken, 1 mL theanine sample and 4 mL sodium bicarbonate solution were added to one tube, and 5 mL sodium bicarbonate solution was added to the other tube, mixed and then stood for 5 min. […] Immediately after being mixed well, their absorbance values were respectively measured at the wavelength of 570 nm on the spectrophotometer by using distilled water as reference and with a cuvette. A high absorbance at 570 nm indicates a high theanine content. […]

Question: With `N[C@@H](CCC(=O)N[C@@H](CS)C(=O)NCC(=O)O)C(=O)O` [GSH] as the molecule, how does the MMP-1 content (MMP-1) read?
Answer: Its MMP-1 content is 21.17.

Question: And the “CoL I content” value (type I collagen (CoLI))?
Answer: Its value is 6.89.

Question: And the HA content (hyaluronic acid (HA))?
Answer: The HA content was 5.45.

Question: With `O=C1O[C@H]([C@@H](O)CO)C(O)=C1O` [VC] as the molecule, how does the MMP-1 content (MMP-1) read?
Answer: The MMP-1 content was 20.42.

Question: What about the “CoL I content” value (type I collagen (CoLI)) of the same molecule?
Answer: Its value is 2.45.

Question: What about the HA content (hyaluronic acid (HA)) of the same molecule?
Answer: The HA content was 4.38.

B1: CsAlaDC-I177Y (protein)
chain: MEGTVSVLSNVSKVELLSKCFDLITIPVEPLPPVVASNGVAGGETKKMKEKDIVLGKNVHTTSLTITEPDVDDDSTSDMEAFMAGVLVRYRKTLIEKTKYHLGYPFNLDLDYGPLAELQHFAINNLGDPFIESNYGVHSRQFEVGVLDWFARLWEIEQKEYWGYITNGGTEGNLHGYLVGREVFPDGIFYTSRESHYSIFKAARMYRMECVKVGTLINGEIDCADFKAKLLSNKDKPAIINLNIGTTVKGAVDDIDLVIQTLEECGFSHDRFYIHCDGALFGFMMPFLNRGPKITFKKPIGSVSVSGHKFMGCPTPCGVQITRLEHINALSRNVEYLASRDATITGSRNGHSPIILWYALNRKGFKGFQKEVQKCLRNAHYLKDRLREAGISAMLNELSSTVVFERPLDEEFVRRWQLACEGNMAHVIVMPNVTIEKLDEFLNELVQKRANWYNDGKAGPPCLAPDIGSENCDCDLHK
Question: How did the “content of theanine catalyzed by the enzyme” value ([1]; BL21-GMAS-CsAlaDC recombinant, glutamate + alanine + ATP, no ethylamine, 30° C., 24 h) turn out when B1 was run?
Answer: The value was 93.6 µM.

Question: What about the “theanine content higher than that of original enzyme CsAlaDC” value ([1]; compared with original enzyme CsAlaDC) of the same molecule?
Answer: The value was 85%.

— patent US12453358B2, “Theanine-producing strain and use thereof in tea fermentation production” (GUANGZHOU ZHONGZHUANG BEAUTY COSMETICS CO., LTD, priority 2024, dated 2025)
